Measurements: patent publication US20200102295A1, “NITROCATECHOL DERIVATIVES AS COMT INHIBITORS” (BIAL - PORTELA & CA, S.A., priority 2005, published 2020)
“And” between values parts separate entries of the source, which are not always exact repeats. Equal entries are not always repeated. Each block holds one compound with its values, some of them ahead of it.

Legend:
mouse liver COMT = target: T1, mouse liver COMT (Mus musculus, UniProt O88587); assay: Mouse liver COMT activity after oral administration of test compounds; format: in vivo; settings: 3 mg/kg oral, 3 h after administration
T1 construct: Aliquots of 0.5 ml of liver homogenates were preincubated; from tissue; host or cells: mouse liver homogenate (NMRI mice, dosed orally; ex vivo activity)
T1 sequence (O88587 1-265): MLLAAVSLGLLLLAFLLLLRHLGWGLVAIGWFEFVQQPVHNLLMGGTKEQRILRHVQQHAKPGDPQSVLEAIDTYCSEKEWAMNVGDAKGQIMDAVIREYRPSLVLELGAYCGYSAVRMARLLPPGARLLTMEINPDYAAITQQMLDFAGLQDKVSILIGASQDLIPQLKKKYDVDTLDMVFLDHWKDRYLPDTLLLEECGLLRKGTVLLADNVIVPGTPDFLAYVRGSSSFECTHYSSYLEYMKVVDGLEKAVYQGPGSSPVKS

[1] = system: Neuro 2A mouse neuroblastoma cells; assay: Cell toxicity: Neuro 2A cell viability (calcein-AM); format: cell-based; settings: Neuro 2A cells, 30 μM, 24 h exposure

SMILES: Cc1c(-c2noc(-c3cc(O)c(O)c([N+](=O)[O-])c3)n2)c[n+]([O-])c(C)c1C [Compound 46, 3-Nitro-5-[3-(4,5,6-trimethyl-1-oxy-pyridin-3-yl)-[1,2,4]oxadiazol-5-yl]-benzene-1,2-diol]
COMT activity (% of control) (mouse liver COMT): 43.1 % of control
% of viable cells [1]: 53.0%

SMILES: O=[N+]([O-])c1cc(-c2nc(-c3ccc[n+]([O-])c3)no2)cc(O)c1O [Compound 5, 3-Nitro-5-[3-(1-oxy-pyridin-3-yl)-[1,2,4]oxadiazol-5-yl]-benzene-1,2-diol]
COMT activity (% of control) (mouse liver COMT): 58.4 % of control
% of viable cells [1]: 93.8%

COMT activity (% of control) (mouse liver COMT; 3 mg/kg): 64 % of control and 63.6 % of control
SMILES: Cc1nnc(-c2cc(O)c(O)c([N+](=O)[O-])c2)o1 [Compound 3, 5-(5-Methyl-[1,3,4]oxadiazol-2-yl)-3-nitro-benzene-1,2-diol]
% of viable cells [1]: 100.5%

SMILES: Cc1cc(C)[n+]([O-])c(Br)c1-c1noc(-c2cc(O)c(O)c([N+](=O)[O-])c2)n1 [Compound 38, 5-[3-(2-Bromo-4,6-dimethyl-1-oxy-pyridin-3-yl)-[1,2,4]oxadiazol-5-yl]-3-nitro-benzene-1,2-diol]
COMT activity (% of control) (mouse liver COMT): 16.3 % of control
% of viable cells [1]: 86.0%

SMILES: O=[N+]([O-])c1cc(-c2nc(-c3cc[n+]([O-])c4ccccc34)no2)cc(O)c1O [Compound 34, 3-Nitro-5-[3-(1-oxy-quinolin-4-yl)-[1,2,4]oxadiazol-5-yl]-benzene-1,2-diol]
COMT activity (% of control) (mouse liver COMT): 88.6 % of control

SMILES: Cc1cc(C)[n+]([O-])c(Cl)c1-c1noc(-c2cc(O)c(O)c([N+](=O)[O-])c2)n1 [Compound 37, 5-[3-(2-Chloro-4,6-dimethyl-1-oxy-pyridin-3-yl)-[1,2,4]oxadiazol-5-yl]-3-nitro-benzene-1,2-diol]
COMT activity (% of control) (mouse liver COMT): 42.5 % of control
% of viable cells [1]: 92.3%

SMILES: Cc1cc(C(F)(F)F)c(-c2noc(-c3cc(O)c(O)c([N+](=O)[O-])c3)n2)c(-c2ccccc2)[n+]1[O-] [Compound 33, 5-[3-(6-Methyl-1-oxy-2-phenyl-4-trifluoromethyl-pyridin-3-yl)-[1,2,4]oxadiazol-5-yl]-3-nitro-benzene-1,2-diol]
COMT activity (% of control) (mouse liver COMT): 39.8 % of control
% of viable cells [1]: 45.0%

SMILES: Cc1ccc(-c2noc(-c3cc(O)c(O)c([N+](=O)[O-])c3)n2)c(Br)[n+]1[O-] [Compound 36, 5-[3-(2-Bromo-6-methyl-1-oxy-pyridin-3-yl)-[1,2,4]oxadiazol-5-yl]-3-nitro-benzene-1,2-diol]
COMT activity (% of control) (mouse liver COMT): 22.9 % of control
% of viable cells [1]: 76.3%

SMILES: O=[N+]([O-])c1cc(-c2nc(-c3ccc[n+]([O-])c3Cl)no2)cc(O)c1O [Compound 24, 5-[3-(2-Chloro-1-oxy-pyridin-3-yl)-[1,2,4]oxadiazol-5-yl]-3-nitro-benzene-1,2-diol]
COMT activity (% of control) (mouse liver COMT): 71.8 % of control
% of viable cells [1]: 93.7%

SMILES: Cc1cc(C(F)(F)F)c(-c2noc(-c3cc(O)c(O)c([N+](=O)[O-])c3)n2)c(C)[n+]1[O-] [Compound 31, 5-[3-(2,6-Dimethyl-1-oxy-4-trifluoromethyl-pyridin-3-yl)-[1,2,4]oxadiazol-5-yl]-3-nitro-benzene-1,2-diol]
COMT activity (% of control) (mouse liver COMT): 0.8 % of control
% of viable cells [1]: 37.2%

SMILES: O=[N+]([O-])c1cc(-c2nc(-c3cc[n+]([O-])c(N4CCSCC4)c3)no2)cc(O)c1O [Compound 12, 3-Nitro-5-[3-(1-oxy-2-thiomorpholin-4-yl-pyridin-4-yl)-[1,2,4]oxadiazol-5-yl]-benzene-1,2-diol]
COMT activity (% of control) (mouse liver COMT): 92.9 % of control
% of viable cells [1]: 91.7%

SMILES: CSc1cc(-c2noc(-c3cc(O)c(O)c([N+](=O)[O-])c3)n2)cc[n+]1[O-] [Compound 17, 5-[3-(2-Methylsulfanyl-1-oxy-pyridine-4-yl)-[1,2,4]oxadiazol-5-yl]-3-nitro-benzene-1,2-diol]
COMT activity (% of control) (mouse liver COMT): 89.9 % of control
% of viable cells [1]: 96.0%

SMILES: O=[N+]([O-])c1cc(-c2nc(-c3cc[n+]([O-])c(-c4ccoc4)c3)no2)cc(O)c1O [Compound 10, 5-[3-(2-Furan-3-yl-1-oxy-pyridine-4-yl)-[1,2,4]oxadiazol-5-yl]-3-nitro-benzene-1,2-diol]
COMT activity (% of control) (mouse liver COMT): 95.2 % of control
% of viable cells [1]: 69.3%

SMILES: O=[N+]([O-])c1cc(-c2nc(-c3ccc(C(F)(F)F)[n+]([O-])c3)no2)cc(O)c1O [Compound 28, 3-Nitro-5-[3-(1-oxy-6-trifluoromethyl-pyridin-3-yl)-[1,2,4]oxadiazol-5-yl]-benzene-1,2-diol]
COMT activity (% of control) (mouse liver COMT): 11.3 % of control
% of viable cells [1]: 87.0%

SMILES: O=[N+]([O-])c1cc(-c2nc(COc3ccc(C(F)(F)F)c[n+]3[O-])no2)cc(O)c1O [Compound 44, 3-Nitro-5-[3-(1′-oxy-5-trifluoromethyl-pyridin-2-yloxymethyl)-[1,2,4]oxadiazol-5-yl]-benzene-1,2-diol]
COMT activity (% of control) (mouse liver COMT): 24.5 % of control

COMT activity (% of control) (mouse liver COMT; 3 mg/kg): 79 % of control and 78.8 % of control
SMILES: Cc1nc(-c2cc(O)c(O)c([N+](=O)[O-])c2)no1 [Compound 2, 5-(5-Methyl-[1,2,4]oxadiazol-3-yl)-3-nitro-benzene-1,2-diol]
% of viable cells [1]: 92.5%

SMILES: O=[N+]([O-])c1cc(-c2nc(-c3cc[n+]([O-])c(-c4ccccc4)c3)no2)cc(O)c1O [Compound 9, 3-Nitro-5-[3-(1-oxy-2-phenyl-pyridin-4-yl)-[1,2,4]oxadiazol-5-yl]-benzene-1,2-diol]
COMT activity (% of control) (mouse liver COMT): 80.6 % of control
% of viable cells [1]: 79.7%

SMILES: Cc1c(-c2noc(-c3cc(O)c(O)c([N+](=O)[O-])c3)n2)c(C(F)(F)F)cc(-c2ccccc2)[n+]1[O-] [Compound 32, 5-[3-(2-Methyl-1-oxy-6-phenyl-4-trifluoromethyl-pyridin-3-yl)-[1,2,4]oxadiazol-5-yl]-3-nitro-benzene-1,2-diol]
COMT activity (% of control) (mouse liver COMT): 9.7 % of control
% of viable cells [1]: 26.6%

SMILES: O=[N+]([O-])c1cc(-c2nc(-c3cccc[n+]3[O-])no2)cc(O)c1O [Compound 6, 3-Nitro-5-[3-(1-oxy-pyridin-2-yl)-[1,2,4]oxadiazol-5-yl]-benzene-1,2-diol]
COMT activity (% of control) (mouse liver COMT): 101.0 % of control
% of viable cells [1]: 107.1%

SMILES: CS(=O)(=O)c1cc(-c2noc(-c3cc(O)c(O)c([N+](=O)[O-])c3)n2)cc[n+]1[O-] [Compound 16, 5-[3-(2-Methanesulfonyl-1-oxy-pyridine-4-yl)-[1,2,4]oxadiazol-5-yl]-3-nitro-benzene-1,2-diol]
COMT activity (% of control) (mouse liver COMT): 85.9 % of control
% of viable cells [1]: 64.6%

SMILES: Cc1c(C)c(C)[n+]([O-])c(Br)c1-c1noc(-c2cc(O)c(O)c([N+](=O)[O-])c2)n1 [Compound 40, 5-[3-(2-Bromo-4,5,6-trimethyl-1-oxy-pyridin-3-yl)-[1,2,4]oxadiazol-5-yl]-3-nitrobenzene-1,2-diol]
COMT activity (% of control) (mouse liver COMT): 55.2 % of control
% of viable cells [1]: 69.1%

SMILES: Cc1cc(-c2noc(-c3cc(O)c(O)c([N+](=O)[O-])c3)n2)cc(C)[n+]1[O-] [Compound 15, 5-[3-(2,6-Dimethyl-1-oxy-pyridine-4-yl)-[1,2,4]oxadiazol-5-yl]-3-nitro-benzene-1,2-diol]
COMT activity (% of control) (mouse liver COMT): 79.2 % of control
% of viable cells [1]: 97.1%

SMILES: CSc1ccc(-c2noc(-c3cc(O)c(O)c([N+](=O)[O-])c3)n2)c[n+]1[O-] [Compound 27, 5-[3-(6-Methylsulfanyl-1-oxy-pyridin-3-yl)-[1,2,4]oxadiazol-5-yl]-3-nitro-benzene-1,2-diol]
COMT activity (% of control) (mouse liver COMT): 47.5 % of control
% of viable cells [1]: 95.7%

SMILES: O=[N+]([O-])c1cc(-c2nc(-c3cc(Br)c[n+]([O-])c3)no2)cc(O)c1O [Compound 19, 5-[3-(5-Bromo-1-oxy-pyridin-3-yl)-[1,2,4]oxadiazol-5-yl]-3-nitro-benzene-1,2-diol]
COMT activity (% of control) (mouse liver COMT): 45.2 % of control
% of viable cells [1]: 100.1%

SMILES: O=[N+]([O-])c1cc(-c2nc(-c3cc(-c4ccccc4)c[n+]([O-])c3)no2)cc(O)c1O [Compound 22, 3-Nitro-5-[3-(1-oxy-5-phenyl-pyridin-3-yl)-[1,2,4]oxadiazol-5-yl]-benzene-1,2-diol]
COMT activity (% of control) (mouse liver COMT): 111.6 % of control

SMILES: Cc1ccc(-c2noc(-c3cc(O)c(O)c([N+](=O)[O-])c3)n2)c[n+]1[O-] [Compound 20, 5-[3-(6-Methyl-1-oxy-pyridin-3-yl)-[1,2,4]oxadiazol-5-yl]-3-nitro-benzene-1,2-diol]
COMT activity (% of control) (mouse liver COMT): 56.6 % of control

SMILES: O=[N+]([O-])c1cc(-c2nc(-c3cc[n+]([O-])c(Sc4ccccc4)c3)no2)cc(O)c1O [Compound 13, 3-Nitro-5-[3-(1-oxy-2-phenylsulfanyl-pyridin-4-yl)-[1,2,4]oxadiazol-5-yl]-benzene-1,2-diol]
COMT activity (% of control) (mouse liver COMT): 102.3 % of control

SMILES: Cc1cc[n+]([O-])cc1-c1noc(-c2cc(O)c(O)c([N+](=O)[O-])c2)n1 [Compound 21, 5-[3-(4-Methyl-1-oxy-pyridin-3-yl)-[1,2,4]oxadiazol-5-yl]-3-nitro-benzene-1,2-diol]
COMT activity (% of control) (mouse liver COMT): 95.6 % of control

SMILES: O=[N+]([O-])c1cc(-c2nc(-c3cc4ccccc4[n+]([O-])c3)no2)cc(O)c1O [Compound 35, 3-Nitro-5-[3-(1-oxy-quinolin-3-yl)-[1,2,4]oxadiazol-5-yl]-benzene-1,2-diol]
COMT activity (% of control) (mouse liver COMT): 81.2 % of control
